Reference: patent publication US6013618A, “Perfumes having odor longevity benefits” (Procter & Gamble Company, priority 1998, dated 2000)

Experiment: Fragrance Release Half-life: hydrolysis kinetics of pro-accords monitored by HPLC
Type: physicochemical
Conditions: 10 mL phosphate buffer (NaH2PO4/H3PO4, approximately pH 2.5) admixed with 90 mL dioxane, 30° C.
From the text: Fragrance Release Half-life
The pro-accords useful in the perfume and fine flagrance compositions of the present invention generally have a delayed release of final fragrance accord in order to achieve the increased fragrance longevity benefits described herein. However, the pro-accords generally also deliver the fragrance accords during a time period useful to the formulator, for example, within a time period desirable to the consumer.
For the purposes of the present invention the pro-accords generally have a "Fragrance Release Half-life" of less than or equal to 12 hours when measured in NaH2 PO4 buffer at pH 2.5 and greater than or equal to 0.1 hour when measured in NaH2 PO4 buffer at pH 5.3. The "Fragrance Release Half-life" is defined herein as follows
Pro-accords deliver their corresponding mixture of fragrance raw materials or fragrance accords according to the equation: […]
wherein the accord which is released may be a binary accord or a multiple fragrance raw material accord.
The rate at which the accord is released is defined by the formula: […]
An example of the procedure used to measure the suitability of a pro-accord for use in the fragrance delivery systems at pH 2.5 is as follows. […] Next 10 mL of the phosphate buffer is admixed with 90 mL of dioxane and the pro-fragrance to be analyzed is added. The hydrolysis kinetics are then monitored by conventional HPLC at 30° C. […]

t1/2 (Fragrance Release Half-life) [h] | SMILES
4.8 | c1ccc(CCOC(OCCc2ccccc2)(OCCc2ccccc2)OCCc2ccccc2)cc1 [tetrakis(phenylethyl) orthocarbonate, Tetrakis(phenylethyl) Orthocarbonate]
5.9 | c1ccc(CCOC(OCCc2ccccc2)OCCc2ccccc2)cc1 [tris(phenylethyl) orthoformate, Tris(phenylethyl) Orthoformate]
